This is an account of results in patent publication US20250248970A1, “NOVEL SUBSTITUTED FLUORINATED N-PROPYL-PYRROLIDINE COMPOUNDS, PROCESSES FOR THEIR PREPARATION AND THERAPEUTIC USES THEREOF” (SANOFI, priority 2022, published 2025).

The target of this experiment is T1, ERα (Homo sapiens, UniProt P03372).
T1 construct: host or cells: MCF7
T1 sequence (P03372 1-595): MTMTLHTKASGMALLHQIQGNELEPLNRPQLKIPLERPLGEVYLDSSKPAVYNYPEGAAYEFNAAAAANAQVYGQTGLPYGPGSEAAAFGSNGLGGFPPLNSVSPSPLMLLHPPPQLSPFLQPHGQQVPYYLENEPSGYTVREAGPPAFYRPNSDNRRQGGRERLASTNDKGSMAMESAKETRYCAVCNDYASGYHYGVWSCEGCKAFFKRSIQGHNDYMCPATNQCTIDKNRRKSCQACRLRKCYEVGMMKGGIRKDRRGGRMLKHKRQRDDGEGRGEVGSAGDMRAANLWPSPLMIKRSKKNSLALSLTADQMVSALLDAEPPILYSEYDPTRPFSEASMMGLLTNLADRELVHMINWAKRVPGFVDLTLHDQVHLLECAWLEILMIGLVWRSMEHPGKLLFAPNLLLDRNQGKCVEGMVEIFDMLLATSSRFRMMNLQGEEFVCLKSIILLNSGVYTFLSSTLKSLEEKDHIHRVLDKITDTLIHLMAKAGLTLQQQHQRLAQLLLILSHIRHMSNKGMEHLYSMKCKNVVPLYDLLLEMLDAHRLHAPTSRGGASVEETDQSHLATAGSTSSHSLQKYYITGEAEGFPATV
In words: Estrogen receptor degradation activity (breast cancer cell ERα in cell western assay). To be noted: MCF7 cells, 0.3 μM, 4 hours, % of ERα levels decrease relative to fulvestrant. In kind it is cell-based. The method, then:
Said test involves measuring the in vitro degradation activity of the compounds of the Table 1a.
The measurements of the degradation activities were made using a breast cancer cell ERα in cell western assay as described hereunder.
MCF7 cells (ATCC) were seeded in 384 wells microplate (collagen coated) at a concentration of 10000 cells/30 μL per well in red phenol free MEM alpha medium (invitrogen) containing 5% charcoal dextran striped FBS. The following day, 9 points serial 1:5 dilution of each compound was added to the cells in 2.5p L at final concentrations ranging from 0.3-0.0000018 μM (in table 2), or 0.1 μM for fulvestrant (using as positive control). At 4 hours post compound addition the cells were fixed by adding 25 μL of formalin (final concentration 5% formalin containing 0.1% triton) for 10 minutes at room temperature and then washed twice with PBS. Then, 50 μL of LI-COR blocking buffer containing 0.1% Triton was added to plate for 30 minutes at room temperature. LI-COR blocking buffer was removed and cells were incubated overnight at cold room with 50 μL anti-ER rabbit monoclonal antibody (Thermo scientific MA1-39540) diluted at 1:1000 in LI-COR blocking buffer containing 0.1% tween-20. Wells which were treated with blocking buffer but no antibody were used as background control. Wells were washed twice with PBS (0.1% tween-20) and incubated at 37° C. for 60 minutes in LI-COR (0.1% tween-20) containing goat anti-rabbit antibody Alexa 488 (1:1000) and Syto-64 a DNA dye (2 μM final concentration). Cells were then washed 3 times in PBS and scanned in ACUMEN explorer (TTP-Labtech). Integrated intensities in the green fluorescence and red fluorescence were measured to determine the levels of ERα and DNA respectively.
The degradation activity with respect to estrogen receptors in this test is given by the concentration which degrades 50% of the estrogen receptor (or IC50) in nM.
The % of ERα levels decrease were determined as follows: % inhibition=100*(1−(sample−fulvestrant: DMSO−fulvestrant)).
Turning to `Cl.O=C(O)c1ccc2c(c1)CCCC(c1cccc(C(F)(F)F)c1)=C2c1ccc(CC2CCN(CCCF)C2)cc1` (single isomer, unassigned; isomer 1) [Compound 39, 9-(4-((1-(3-fluoropropyl)pyrrolidin-3-yl)methyl)phenyl)-8-(3-(trifluoromethyl)phenyl)-6,7-dihydro-5H-benzo[7]annulene-3-carboxylic acid hydrochloride, Isomer 1], the “% Degradation At 0.3 μM” value was determined as 76%.

Regarding `Cc1cc(F)ccc1C1=C(c2ccc(CC3CCN(CCCF)C3)cc2)c2ccc(C(=O)O)cc2CCC1` (single isomer, unassigned; isomer 1) [Compound 17, 8-(4-fluoro-2-methylphenyl)-9-(4-((1-(3-fluoropropyl)pyrrolidin-3-yl)methyl)phenyl)-6,7-dihydro-5H-benzo[7]annulene-3-carboxylic acid, Isomer 1], the “% Degradation At 0.3 μM” value is given as 84%.

As to `Cl.O=C(O)c1ccc2c(c1)OCCC(c1ccc(Cl)cc1Cl)=C2c1ccc(CC2CCN(CCCF)C2)cc1` (single isomer, unassigned; isomer 1) [Compound 7, 4-(2,4-dichlorophenyl)-5-(4-((1-(3-fluoropropyl)pyrrolidin-3-yl)methyl)phenyl)-2,3-dihydrobenzo[b]oxepine-8-carboxylic acid hydrochloride, Isomer 1], the “% Degradation At 0.3 μM” value is reported as 80%.

For the compound `Cc1cc(F)cc(C)c1C1=C(c2ccc(CC3CCN(CCCF)C3)cc2)c2ccc(C(=O)O)cc2CCC1.Cl` (single isomer, unassigned; isomer 1) [Compound 35, 8-(4-fluoro-2,6-dimethylphenyl)-9-(4-((1-(3-fluoropropyl)pyrrolidin-3-yl)methyl)phenyl)-6,7-dihydro-5H-benzo[7]annulene-3-carboxylic acid hydrochloride, Isomer 1], the “% Degradation At 0.3 μM” value is on record as 84%.

With `O=C(O)c1ccc2c(c1)CCCC(c1ccc(Cl)cc1Cl)=C2c1ccc(C[C@@H]2CCN(CCCF)C2)cc1` [Compound 24, 8-(2,4-dichlorophenyl)-9-(4-((1-(3-fluoropropyl)pyrrolidin-3-yl)methyl)phenyl)-6,7-dihydro-5H-benzo[7]annulene-3-carboxylic acid, (R) Isomer], the “% Degradation At 0.3 μM” value was found to be 46%.

Consider `O=C(O)c1ccc2c(c1)CCCC(c1ccc(Cl)cc1Cl)=C2c1ccc(C(F)(F)C2CCN(CCCF)C2)cc1` (single isomer, unassigned; isomer 1) [Compound 26, 8-(2,4-dichlorophenyl)-9-(4-(difluoro(1-(3-fluoropropyl)pyrrolidin-3-yl)methyl)phenyl)-6,7-dihydro-5H-benzo[7]annulene-3-carboxylic acid, Isomer 1], for which the “% Degradation At 0.3 μM” value is recorded as 84%.

Take `CC1CCc2cc(C(=O)O)ccc2C(c2ccc(CC3CCN(CCCF)C3)cc2)=C1c1ccc(C(F)(F)F)cc1` (single isomer, unassigned; isomer 2) [Compound 42, 9-(4-((1-(3-fluoropropyl)pyrrolidin-3-yl)methyl)phenyl)-7-methyl-8-(4-(trifluoromethyl)phenyl)-6,7-dihydro-5H-benzo[7]annulene-3-carboxylic acid, Isomer 2]: the “% Degradation At 0.3 μM” value worked out at 90%.

Take `Cl.Oc1ccc2c(c1)CCCC(c1ccc(Cl)cc1Cl)=C2c1ccc(CC2CCN(CCC(F)F)C2)cc1` (single isomer, unassigned; isomer 1) [Compound 31, 8-(2,4-dichlorophenyl)-9-(4-((1-(3,3-difluoropropyl)pyrrolidin-3-yl)methyl)phenyl)-6,7-dihydro-5H-benzo[7]annulen-3-ol hydrochloride, Isomer 1]: the “% Degradation At 0.3 μM” value came out at 73%.

Turning to `Cl.O=C(O)c1ccc2c(c1)CCCC(c1ccc(F)cc1Cl)=C2c1ccc(CC2CCN(CCC(F)F)C2)cc1` (single isomer, unassigned; isomer 1) [Compound 27, 8-(2-chloro-4-fluorophenyl)-9-(4-((1-(3,3-difluoropropyl)pyrrolidin-3-yl)methyl)phenyl)-6,7-dihydro-5H-benzo[7]annulene-3-carboxylic acid hydrochloride, Isomer 1], the “% Degradation At 0.3 μM” value is 73%.

In the case of `Oc1ccc2c(c1)SCCC(c1ccc(Cl)cc1Cl)=C2c1ccc(CC2CCN(CCCF)C2)cc1` (single isomer, unassigned; isomer 1) [Compound 43, 4-(2,4-dichlorophenyl)-5-(4-((1-(3-fluoropropyl)pyrrolidin-3-yl)methyl)phenyl)-2,3-dihydrobenzo[b]thiepin-8-ol, Isomer 1], the “% Degradation At 0.3 μM” value is 80%.

For `Cc1c(F)cccc1C1=C(c2ccc(CC3CCN(CCCF)C3)cc2)c2ccc(C(=O)O)cc2CCC1.Cl` (single isomer, unassigned; isomer 1) [Compound 20, 8-(3-fluoro-2-methylphenyl)-9-(4-((1-(3-fluoropropyl)pyrrolidin-3-yl)methyl)phenyl)-6,7-dihydro-5H-benzo[7]annulene-3-carboxylic acid hydrochloride, Isomer 1], the “% Degradation At 0.3 μM” value is given as 90%.

With `O=C(O)c1ccc2c(c1)CCCC(c1ccc(F)cc1C(F)(F)F)=C2c1ccc(CC2CCN(CCCF)C2)cc1` (single isomer, unassigned; isomer 1) [Compound 18, 8-(4-fluoro-2-(trifluoromethyl)phenyl)-9-(4-((1-(3-fluoropropyl)pyrrolidin-3-yl)methyl)phenyl)-6,7-dihydro-5H-benzo[7]annulene-3-carboxylic acid, Isomer 1], the “% Degradation At 0.3 μM” value was determined as 86%.

Consider `Cl.O=C(O)c1ccc2c(c1)CCCC(c1ccc(F)cc1F)=C2c1ccc(CC2CCN(CCCF)C2)cc1` (single isomer, unassigned; isomer 1) [Compound 19, 8-(2,4-difluorophenyl)-9-(4-((1-(3-fluoropropyl)pyrrolidin-3-yl)methyl)phenyl)-6,7-dihydro-5H-benzo[7]annulene-3-carboxylic acid hydrochloride, Isomer 1], for which the “% Degradation At 0.3 μM” value is reported as 86%.

For `O=C(O)c1ccc2c(c1)CCCC(c1ccc(F)cc1F)=C2c1ccc(CC2CCN(CCC(F)F)C2)cc1` (single isomer, unassigned; isomer 1) [Compound 10, 8-(2,4-difluorophenyl)-9-(4-((1-(3,3-difluoropropyl)pyrrolidin-3-yl)methyl)phenyl)-6,7-dihydro-5H-benzo[7]annulene-3-carboxylic acid, Isomer 1], the “% Degradation At 0.3 μM” value is listed as 84%.

As to `Cc1c(Cl)cccc1C1=C(c2ccc(CC3CCN(CCCF)C3)cc2)c2ccc(C(=O)O)cc2CCC1` (single isomer, unassigned; isomer 1) [Compound 15, 8-(3-chloro-2-methylphenyl)-9-(4-((1-(3-fluoropropyl)pyrrolidin-3-yl)methyl)phenyl)-6,7-dihydro-5H-benzo[7]annulene-3-carboxylic acid, Isomer 1], the “% Degradation At 0.3 μM” value was 88%.

Turning to `O=C(O)c1ccc2c(c1)CCCC(c1ccc(Cl)cc1Cl)=C2c1ccc(CC2CCN(CCC(F)F)C2)cc1` (single isomer, unassigned; isomer 1) [Compound 9, 8-(2,4-dichlorophenyl)-9-(4-((1-(3,3-difluoropropyl)pyrrolidin-3-yl)methyl)phenyl)-6,7-dihydro-5H-benzo[7]annulene-3-carboxylic acid, Isomer 1], the “% Degradation At 0.3 μM” value is recorded as 80%.

Turning to `Oc1ccc2c(c1)SCCC(c1ccccc1Cl)=C2c1ccc(CC2CCN(CCCF)C2)cc1` (single isomer, unassigned; isomer 1) [Compound 44, 4-(2-chlorophenyl)-5-(4-((1-(3-fluoropropyl)pyrrolidin-3-yl)methyl)phenyl)-2,3-dihydrobenzo[b]thiepin-8-ol, Isomer 1], the “% Degradation At 0.3 μM” value turned out to be 70%.

In the case of `Cl.O=C(O)c1ccc2c(c1)CCC(c1ccc(Cl)cc1Cl)=C2c1ccc(CC2CCN(CCCF)C2)cc1` (single isomer, unassigned; isomer 1) [Compound 36, 6-(2,4-dichlorophenyl)-5-(4-((1-(3-fluoropropyl)pyrrolidin-3-yl)methyl)phenyl)-7,8-dihydronaphthalene-2-carboxylic acid hydrochloride, Isomer 1], the “% Degradation At 0.3 μM” value was 92%.
